The target in this assay is human V1a receptor (Homo sapiens, UniProt P37288). The experiment in a line: Human vasopressin V1a receptor binding assay. To be noted: competitive binding against 1 nM 3H-AVP, hV1a cell line (CHO cells), 45 minutes at 37° C. On the procedure:
A cell line expressing the human V1a receptor in CHO cells (henceforth referred to as the hV1a cell line) was obtained from Dr. Michael Brownstein, NIMH, Bethesda, Md., USA. The hV1a cDNA sequence is described by Thibonnier et al., Journal of Biological Chemistry, 269:3304-3310 (1994), and the expression method was the same as described by Morel et al. (1992). The hV1a cell line was grown in alpha-MEM with 10% fetal bovine serum and 250 ug/ml G418 (Gibco, Grand Island, N.Y., USA). For competitive binding assay, hV1a cells were plated into 6-well culture plate at 1:10 dilution from a confluency flask, and maintained in culture for at least two days. Culture medium was then removed, cells were washed with 2 ml binding buffer (25 mM Hepes, 0.25% BSA, 1×DMEM, PH=7.0). To each well, 990 μl binding buffer containing 1 nM 3H-AVP was added, and followed by 10 μl series diluted Example compounds dissolved in DMSO. All incubations were in triplicate, and dose-inhibition curves consisted of total binding (DMSO) and 5 concentrations (0.1, 1.0, 10, 100, and 1000 nM) of test agents encompassing the IC50. 100 nM cold AVP (Sigma) was used to assess non-specific binding. […] Samples were counted in a liquid scintillation counter (Beckman LS3801). IC50 values were calculated by Prism Curve fitting software.

Sequence of human V1a receptor (P37288 whole entry): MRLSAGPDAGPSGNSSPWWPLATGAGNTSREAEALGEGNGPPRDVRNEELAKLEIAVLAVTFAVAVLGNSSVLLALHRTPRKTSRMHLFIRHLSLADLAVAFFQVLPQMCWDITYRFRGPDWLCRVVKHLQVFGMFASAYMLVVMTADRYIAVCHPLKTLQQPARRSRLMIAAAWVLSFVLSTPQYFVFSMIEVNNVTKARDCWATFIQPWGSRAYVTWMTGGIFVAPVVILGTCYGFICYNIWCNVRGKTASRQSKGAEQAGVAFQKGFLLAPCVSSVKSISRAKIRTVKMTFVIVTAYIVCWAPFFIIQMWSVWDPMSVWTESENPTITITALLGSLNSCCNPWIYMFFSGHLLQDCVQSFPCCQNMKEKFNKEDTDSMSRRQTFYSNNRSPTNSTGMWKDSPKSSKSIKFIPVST

On to `C[C@@]1(N2C(=O)OC[C@@H]2c2ccccc2)C(=O)N([C@H](CC(=O)N2CCC(N3CCCCC3)CC2)C(=O)NCc2cccc(C(F)(F)F)c2)[C@@H]1/C=C/c1ccccc1` [Example 33, 4-(Piperidin-1-yl)-piperidin-1-yl 3(R)-[3(S)-(4(S)-phenyloxazolidin-2-on-3-yl)-3-methyl-4(R)-(styr-2-yl)azetidin-2-on-1-yl]-3-[(3-trifluoromethyl)phenylmethylaminocarbonyl]propanoic acid], for which the IC50 (usually the concentration that gives 50% inhibition) worked out at 5 nM.

The values above are taken from patent publication US20060281728A1, “3-Substituted beta-lactamyl vasopressin v1a antagonists” (priority 2003, published 2006).
